According to US11780840B2 (Incyte Corporation, priority 2020, dated 2023):

What was measured:
[1] = biological target: T1, catalytic domain (JH1, amino acids 826-1132) of human JAK2 (Homo sapiens, UniProt O60674); experiment: JAK2 LanthaScreen JH1 Binding Assay; settings: JAK2 JH1 (1.5 nM), 50 nM fluorescent JAK2-JH1 tracer, 2 hours at 25° C.; read-out: JH1 BIND
T1 construct: catalytic domain (JH1, amino acids 826-1132) of human JAK2; FLAG (N); purchased Carna Biosciences 08-445-20N; host or cells: baculovirus expression system
T1 sequence (O60674 826-1132): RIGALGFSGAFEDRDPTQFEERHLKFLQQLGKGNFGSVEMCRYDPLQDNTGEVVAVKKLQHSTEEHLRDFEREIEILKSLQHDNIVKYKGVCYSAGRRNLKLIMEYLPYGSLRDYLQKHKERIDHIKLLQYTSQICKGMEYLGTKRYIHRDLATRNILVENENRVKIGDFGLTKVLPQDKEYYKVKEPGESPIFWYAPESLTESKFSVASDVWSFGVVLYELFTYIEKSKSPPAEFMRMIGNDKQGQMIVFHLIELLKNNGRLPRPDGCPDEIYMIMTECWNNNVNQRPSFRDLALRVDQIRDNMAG
How it was run: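 TR-FRET tracer-displacement format: compound IC50 from four-parameter curves after 2 h at 25° C. Reaction held 1.5 nM biotinylated, FLAG-tagged JH1 (aa 826-1132), 50 nM tracer, 0.5 nM Streptavidin-Tb, pH 7.5 Tris buffer; 2 mM ATP set nonspecific background.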

[2] = biological target: T2, pseudo-kinase domain (JH2, amino-acids 536-812 with 3 surface mutations W659A, W777A, F794H) of human Wild Type JAK2 (Homo sapiens, UniProt O60674, F794H/W659A/W777A); experiment: JAK2 LanthaScreen JH2-WT Binding Assay; settings: JAK2 JH2-WT (0.145 nM), 50 nM Fluorescent JAK2-JH2 Tracer, 1 hour at 25° C.; read-out: JH2 BIND WT
T2 construct: pseudo-kinase domain (JH2, amino-acids 536-812 with 3 surface mutations W659A, W777A, F794H); His (C); Avi (biotinylated) (C); purchased BPS Bioscience 79463; host or cells: baculovirus expression system
T2 sequence (O60674 536-812 W659A/W777A/F794H): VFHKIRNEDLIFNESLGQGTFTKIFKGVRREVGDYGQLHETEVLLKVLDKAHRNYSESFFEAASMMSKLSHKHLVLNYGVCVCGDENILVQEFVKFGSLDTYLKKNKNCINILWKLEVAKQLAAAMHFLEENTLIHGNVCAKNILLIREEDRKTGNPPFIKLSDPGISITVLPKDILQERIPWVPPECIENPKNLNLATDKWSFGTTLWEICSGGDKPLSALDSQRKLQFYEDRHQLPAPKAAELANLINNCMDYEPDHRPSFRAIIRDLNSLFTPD
How it was run: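 IC50 values derive from four-parameter fits of LanthaScreen signal, measuring displacement of 50 nM fluorescent tracer from 0.145 nM biotinylated, baculovirus-expressed JH2 (536-812) detected by 0.25 nM streptavidin-Tb. Incubation lasts 1 hour at 25° C, pH 7.5.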

[3] = biological target: T3, pseudo-kinase domain (JH2, amino-acids 536-812 with 3 surface mutations W659A, W777A, F794H) of human V617F mutant JAK2 (Homo sapiens, UniProt O60674, F794H/V617F/W659A/W777A); experiment: JAK2 LanthaScreen JH2-V617F Binding Assay; settings: JAK2 JH2-V617F (0.26 nM), 50 nM Fluorescent JAK2-JH2 Tracer, 1 hour at 25° C.; read-out: JH2 BIND V617F
T3 construct: pseudo-kinase domain (JH2, amino-acids 536-812 with 3 surface mutations W659A, W777A, F794H); His (C); Avi (biotinylated) (C); purchased BPS Bioscience 79498; host or cells: baculovirus expression system
T3 sequence (O60674 536-812 V617F/W659A/W777A/F794H): as the sequence (O60674 536-812 W659A/W777A/F794H) above, with V82F counted along it
How it was run: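 TR-FRET tracer displacement: 0.26 nM protein, 50 nM tracer, 0.25 nM SA-Tb, 50 mM Tris pH 7.5, 10 mM MgCl2, 5 mM DTT; 1 h, 25° C. NSB = 2 mM ATP. IC50, 4-parameter curve.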

SMILES: Cn1cc(-c2[nH]c3ncc4c(c3c2-c2ccc(C#N)cc2)n(C2CCC3(CC2)CN(S(C)(=O)=O)C3)c(=O)n4C)cn1 [Example 112, 4-(3-Methyl-7-(1-methyl-1H-pyrazol-4-yl)-1-(2-(methylsulfonyl)-2-azaspiro[3.5]nonan-7-yl)-2-oxo-1,2,3,6-tetrahydroimidazo[4,5-d]pyrrolo[2,3-b]pyridin-8-yl)benzonitrile]
- IC50 [1]: 500 to 1000 nM
- IC50 [2]: ≤ 10 nM
- IC50 [3]: ≤ 10 nM
